Assay results from patent publication US12139458B2, “(2,5-dioxopyrrolidin-1-yl)(phenyl)-acetamide derivatives and their use in the treatment of neurological diseases” (UNIWERSYTET JAGIELLONSKI, priority 2019, dated 2024).

Tests used:
[1] = system: male Swiss albino mice (CD-1); assay: Maximal electroshock seizure test (MES); type: in vivo; details: 0.5 h, mice; for ED50 / responders at 100 mg/kg: Mus musculus, ip; for MES: number of mice protected/number of mice tested / responders at 100 mg/kg: screening, 100 mg/kg i.p.; for responders at 100 mg/kg: read-out: MES: number of mice protected/number of mice tested (converted)
Procedure: (§1) The male Swiss albino mice (CD-1) weighing 18-26 g were used. All procedures were carried out in accordance with applicable Polish and international guidelines on the ethics of animal testing, after obtaining appropriate institutional approval. The substances were administered intraperitoneally (i.p.), in 1% aqueous solution of Tween, as single injections with a volume of 10 ml/kg, 30 minutes before the given test. Screening was performed on groups consisted of 4 mice. The average effective dose (ED50) in given test and toxic dose in the rotarod test (TD50) was estimated based on the results obtained in 3-4 groups of animals consisting of 6 mice. All tests were carried out based on the procedures described in the specialist literature.
In the MES test, the seizures were induced by an electrical stimulus lasting of 0.2 s duration, 500 V voltage and 25 mA intensity. The electrical stimuli was generated using an electric shock generator (Rodent shocker, Type 221, Hugo Sachs Elektronik, Germany) and delivered to the animal using electrodes placed on the auricles. The study was conducted 30 minutes after intraperitoneal administration of the compounds at various doses. During the experiment, the number of animals that experienced a seizure episode in the form of tonic extension of the hind limbs was counted (Kamiński, K.; Rapacz, A.; Łuszczki, J. J.; Latacz, G.; Obniska, J.; Kieć-Kononowicz, K.; Filipek, B. Bioorg. Med. Chem. 2015, 23, 2548-2561; Castel-Branco, M. M.; Alves, G. L.; Figueiredo, I. V.; Falcão, A. C.; Caramona, M. M. Methods Find. Exp. Clin. Pharmacol. 2009, 31, 101-106).
(§2) To perform a statistical evaluation of the results, one-way ANOVA variance analysis and Dunnett's post hoc test (multiple comparison test) were used. The value at the significance level p<0.05 was considered statistically significant.

[2] = system: male Swiss albino mice (CD-1); assay: Psychomotor seizure test 6 Hz (32 mA); type: in vivo; details: 0.5 h, mice; for ED50 / responders at 100 mg/kg: Mus musculus, ip; for responders at 100 mg/kg / 6 Hz (32 mA): number of mice protected/number of mice tested: screening, 100 mg/kg i.p.; for responders at 100 mg/kg: read-out: 6 Hz (32 mA): number of mice protected/number of mice tested (converted)
Procedure: as §1
In the 6 Hz test, seizures were induced by an electric stimulus of 32 mA and/or 44 mA and a frequency of 6 pulses per second. An electrical pulse was generated using an electric shock generator (ECT Unit 57800; Ugo Basile, Gemonio, Italy) and delivered to the animal using ocular electrodes. Before starting the test, the eye surface was gently moistened with a solution of local anesthetic (1% lidocaine solution). The study was conducted 30 minutes after intraperitoneal administration of the compounds at various doses. An electrical pulse was delivered continuously for a period of 3 seconds, followed by observation of the animal for a period of 10 seconds. During this time, immobility or stun associated with rearing, forelimb clonus, twitching of the vibrissae and Straub's tail were observed. These symptoms persist throughout the observation period, indicating the occurrence of psychomotor seizures in mice. Mice resuming normal behavior within 10 s after stimulation were considered as protected (Barton, M. E.; Klein, B. D.; Wolf, H. H.; White, H. S. Epilepsy Res. 2001, 47, 217-227; Wojda, E.; Wlaź, A.; Patsalos, P. N.; Łuszczki, J. J. Epilepsy Res. 2009, 86, 163-174).
as §2

[3] = system: male Swiss albino mice (CD-1); assay: Subcutaneous pentylenetetrazole seizure test (scPTZ); type: in vivo; details: 0.5 h, mice; for ED50 / responders at 100 mg/kg: Mus musculus, ip; for scPTZ: number of mice protected/number of mice tested / responders at 100 mg/kg: screening, 100 mg/kg i.p.; for responders at 100 mg/kg: read-out: scPTZ: number of mice protected/number of mice tested (converted)
Procedure: as §1
In the scPTZ test, seizures were induced by subcutaneous administration of pentylenetetrazole (PTZ) at a dose of 100 mg/kg. This caused clonic seizures with accompanying loss of the righting reflex. Test compounds were administered 30 minutes before the experiment. After PTZ administration, the animals were placed individually in transparent containers and observed for a period of 30 minutes for the occurrence of clonic seizures. During this time, the latency of the first onset of clonic seizures, defined as clonus of the whole body lasting at least 3 seconds with loss of the righting reflex and the number of seizure episodes during the test were noted and compared with control group. The absence of clonic convulsions within the observed time period was interpreted as the compound's ability to protect against PTZ-induced seizures (Ferreri, G.; Chimirri, A.; Russo, E.; Gitto, R.; Gareri, P.; De Sarro, A.; De Sarro, G. Pharmacol. Biochem. Behav. 2004, 77, 85-94; Łączkowski, K.; Sałat, K.; Misiura, K.; Podkowa, A.; Malikowska, N. J. Enzyme Inhib. Med. Chem. 2016, 31, 1576-82).
as §2

[4] = Rotarod test (motor coordination); type: in vivo; details: male, Swiss albino (CD-1), mouse, in vivo, ip, mice
Procedure: as §1, with “All” for “The male Swiss albino mice (CD-1) weighing 18-26 g were used. All”, “The average effective dose (ED50) in given test and toxic dose in the rotarod test (TD50) was estimated based on the results obtained in 3-4 groups of animals consisting of 6 mice.” left out
Mice were trained the day before the actual experiment. They were placed individually on a 2 cm diameter rod rotating at 10 revolutions per minute (rpm). During each training session, the animals remained on the rod for 3 minutes. The experiment was carried out 30 minutes after administration of the compounds. Motor coordination was tested at the speed of the rotating bar: 10 rpm during 60 seconds. Motor impairments were defined as the inability to remain on the rotating rod for 1 min.
as §2

[5] = system: male Swiss albino mice (CD-1); assay: Psychomotor seizure test 6 Hz (44 mA); type: in vivo; details: 0.5 h, mice; for 6 Hz (44 mA): number of mice protected/number of mice tested: screening, 100 mg/kg i.p.
Procedure: as §1, with “All” for “The male Swiss albino mice (CD-1) weighing 18-26 g were used. All”, “The average effective dose (ED50) in given test and toxic dose in the rotarod test (TD50) was estimated based on the results obtained in 3-4 groups of animals consisting of 6 mice.” left out
In the 6 Hz test, seizures were induced by an electric stimulus of 32 mA and/or 44 mA and a frequency of 6 pulses per second. […] Before starting the test, the eye surface was gently moistened with a solution of local anesthetic (1% lidocaine solution). The study was conducted 30 minutes after intraperitoneal administration of the compounds at various doses. An electrical pulse was delivered continuously for a period of 3 seconds, followed by observation of the animal for a period of 10 seconds. During this time, immobility or stun associated with rearing, forelimb clonus, twitching of the vibrissae and Straub's tail were observed. These symptoms persist throughout the observation period, indicating the occurrence of psychomotor seizures in mice.
as §2

Compound	ED50 [1] [mg/kg]	MES: number of mice protected/number of mice tested [1]	ED50 [2] [mg/kg]	responders at 100 mg/kg [2] [%]	ED50 [3] [mg/kg]	scPTZ: number of mice protected/number of mice tested [3]	TD50 at 0.5 h [4] [mg/kg]	melting point [°C]	responders at 100 mg/kg [1] [%]	6 Hz (44 mA): number of mice protected/number of mice tested [5]	responders at 100 mg/kg [3] [%]	scPTZ: number of mice protected/number of mice tested ([3]; 100 mg/kg)	6 Hz (32 mA): number of mice protected/number of mice tested [2]	ED50 ([5]; Mus musculus, ip) [mg/kg]
O=C(C(c1ccccc1)N1C(=O)CCC1=O)N1CCN(c2cc(Cl)cc(Cl)c2)CC1 (racemic) [Compound 4, 1-(2-(4-(3,5-Dichlorophenyl)piperazin-1-yl)-2-oxo-1-phenylethyl)pyrrolidine-2,5-dione]	68.5	¾	17.7	100	> 100	¾	> 300	163.8 to 165.2	–	–	–	–	–	–
O=C(C(c1ccccc1)N1C(=O)CCC1=O)N1CCN(c2cccc(-c3ccccc3)c2)CC1 (racemic) [Compound 13, 1-(2-(4-([1,1′-Biphenyl]-3-yl)piperazin-1-yl)-2-oxo-1-phenylethyl)pyrrolidine-2,5-dione]	43.9	–	26.2	100	< 100	–	73.6	114.1 to 115.4	100	4/4	50	–	–	–
O=C(C(c1ccccc1)N1C(=O)CCC1=O)N1CCC(c2cccc(C(F)(F)F)c2)CC1 (racemic) [Compound 19, 1-(2-Oxo-1-phenyl-2-(4-(3-(trifluoromethyl)phenyl)piperidin-1-yl)ethyl)pyrrolidine-2,5-dione]	81.8	¾	41	100	< 100	–	254	100.1 to 101.5	100	2/4	100	¾	–	–
O=C([C@H](c1ccccc1)N1C(=O)CCC1=O)N1CCN(c2cccc(C(F)(F)F)c2)CC1 [(S)-6, (S)-1-(2-Oxo-1-phenyl-2-(4-(3-(trifluoromethyl)phenyl)piperazin-1-yl)ethyl) pyrrolidine-2,5-dione]	68.5	¾	> 130	50	75.4	¾	> 300	–	–	¼	–	–	–	–
O=C([C@@H](c1ccccc1)N1C(=O)CCC1=O)N1CCN(c2cccc(Cl)c2)CC1 [(R)-3, (R)-1-(2-(4-(3-chlorophenyl)piperazin-1-yl)-2-oxo-1-phenylethyl)pyrrolidine-2,5-dione]	57.7	–	49.3	100	78.3	¾	223	167.3 to 168.1	100	–	–	–	–	–
O=C(C(c1ccccc1)N1C(=O)CCC1=O)N1CCN(c2ccccc2)CC1 (racemic) [Compound 2, 1-(2-Oxo-1-phenyl-2-(4-phenylpiperazin-1-yl)ethyl)pyrrolidine-2,5-dione]	91.1	–	83.5	–	100	¾	> 300	156.7 to 157.4	100	2/4	–	–	¾	–
O=C(C(c1ccccc1)N1C(=O)CCC1=O)N1CCN(c2cccc(C(F)F)c2)CC1 (racemic) [Compound 9, 1-(2-Oxo-1-phenyl-2-(4-(3-(difluoromethyl)phenyl)piperazin-1-yl)ethyl)pyrrolidine-2,5-dione]	97.7	–	63	–	94.3	–	274	156.4 to 157.6	–	–	–	–	–	196
O=C(C(c1ccccc1)N1C(=O)CCC1=O)N1CCN(c2cccc(OC(F)(F)F)c2)CC1 (racemic) [Compound 10, 1-(2-Oxo-1-phenyl-2-(4-(3-(trifluoromethoxy)phenyl)piperazin-1-yl)ethyl)pyrrolidine-2,5-dione]	41.7	–	38.3	100	< 60	–	74	100.3 to 101.6	100	¾	50	–	–	–
O=C([C@@H](c1ccccc1)N1C(=O)CCC1=O)N1CCN(c2cccc(OC(F)(F)F)c2)CC1 [(R)-10, (R)-1-(2-Oxo-1-phenyl-2-(4-(3-(trifluoromethoxy)phenyl)piperazin-1-yl)ethyl)pyrrolidine-2,5-dione]	22.6	–	12.8	100	< 60	–	> 150	168.2 to 169.1	100	–	50	–	–	–
Cc1cccc(N2CCN(C(=O)C(c3ccccc3)N3C(=O)CCC3=O)CC2)c1 (racemic) [Compound 5, 1-(2-Oxo-1-phenyl-2-(4-(m-tolyl)piperazin-1-yl)ethyl)pyrrolidine-2,5-dione]	37.2	¾	35.5	100	57.6	¾	171	188.7 to 192.1	–	2/4	–	–	–	–
O=C(C(c1ccc(F)cc1)N1C(=O)CCC1=O)N1CCN(c2cccc(C(F)(F)F)c2)CC1 (racemic) [Compound 14, 1-(1-(4-Fluorophenyl)-2-oxo-2-(4-(3-(trifluoromethyl)phenyl)piperazin-1-yl)ethyl)pyrrolidine-2,5-dione]	56.4	–	48.3	–	< 100	–	> 300	88.8 to 90.7	100	–	50	–	¾	–
